Two compounds from US8350015B2, “Cyanine dye” (Kabushiki Kaisha Hayashibara Seibutsu Kagaku Kenkyujo, priority 2004, dated 2013) can be followed below.

The data set in a line: Optical resistance of cyanine dye thin membrane exposed to xenon lamp. The class given is physicochemical. As to conditions: xenon lamp 180 W/m^2, exposure 5.5 hours. As to the method:
The resulting solution was poured dropwise on one side of a polished glass plate (5 cm×5 cm) and homogenously spread over the surface of the plate by turning the plate at 1,000 rpm for one minute. Successively, thin membrane of the cyanine dye in this invention was formed on the glass plate by drying in the ventilation of warm and cooled air in this order. Immediately after determining optical transmittance (T0) of the cyanine dye in the form of thin membrane at absorption maximum (about 450 nm) wavelength, the membrane was exposed to xenon lamp (light-irradiation energy of 180 W/m^2 on the plate surface) in the ventilation of cooled air while placing […] xenon lamp with a prescribed distance away from the glass plate, after which the membrane was immediately determined for optical transmittance (T) at absorption maximum wavelength. Thereafter, residual dye rate (%) was calculated by substituting the obtained optical transmittances (T and T0) to Formula 1. In parallel, another thin membrane formed by cyanine dye represented by Chemical Formula 14 (Control 1), a additional thin membrane formed by cyanine dye represented by Chemical Formula 16 (Control 2), a further thin membrane formed by cyanine dye represented by Chemical Formula 14 and an equimolar azometallic complex represented by Chemical Formula 15 as an optical resistance-improving agent (Control 3), and one more additional thin membrane formed by cyanine dye represented by Chemical Formula 16 and an equimolar azometallic complex represented by Chemical Formula 15 as an optical resistance-improving agent (Control 4) were determined for optical resistance similarly as above.

The mark [1] stands for this setting: thin membrane on glass plate, no optical resistance-improving agent, transmittance at absorption maximum (about 450 nm).
[2] abbreviates: thin membrane with equimolar azometallic complex Chemical Formula 15 as optical resistance-improving agent.

With `CN1C(=CC2=[N+](C)c3ccccc3C2(C)C)C(C)(C)c2ccccc21` [Chemical Formula 14], the “Residual dye rate (%)” value was 29.3% under setting [1] and 91.7% under setting [2].
The like results for `CN1C(=CC2=[N+](C)c3ccc4ccccc4c3C2(C)C)C(C)(C)c2c1ccc1ccccc21` [Chemical Formula 16] were, in that order, 30.1% and 92.2%.
